Laboratory results taken from PubChem BioAssay AID200 (DTP/NCI, 2004).
Several values for one entry are separate records, joined by “and”; a condition that tells them apart may be missing. Identical values can stand only once. Inconclusive results and toxic doses are left out.

Test system: B6C3F1 mice, B16 melanoma ip, median survival T/C
Assay: NCI In Vivo Anticancer Drug Screen. Data for tumor model B16 Melanoma (intraperitoneal) in B6C3F1 mice
Conditions: endpoint: median survival time, schedule: Q01DX009 (ip), higher = longer survival
How it was run: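 Antitumor effect was judged in mice with transplanted tumors by dividing the treated group's survival measure by that of vehicle controls.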

[1] = dose: 12.5 mg/kg/injection, vehicle: saline
[2] = dose: 25.0 mg/kg/injection, vehicle: saline
[3] = dose: 50.0 mg/kg/injection, vehicle: saline
[4] = dose: 100.0 mg/kg/injection, vehicle: saline
[5] = dose: 100.0 mg/kg/injection, vehicle: Klucel (hydroxypropylcellulose) (HPC)
[6] = dose: 6.25 mg/kg/injection, vehicle: Klucel (hydroxypropylcellulose) (HPC)
[7] = dose: 12.5 mg/kg/injection, vehicle: Klucel (hydroxypropylcellulose) (HPC)
[8] = dose: 25.0 mg/kg/injection, vehicle: Klucel (hydroxypropylcellulose) (HPC)
[9] = dose: 50.0 mg/kg/injection, vehicle: Klucel (hydroxypropylcellulose) (HPC)
[10] = dose: 3.12 mg/kg/injection, vehicle: Klucel (hydroxypropylcellulose) (HPC)

[Na+]
T/C (dose: 25.0 mg/kg/injection, vehicle: water): 111 % of control
T/C (dose: 50.0 mg/kg/injection, vehicle: water): 91 % of control
T/C (dose: 100.0 mg/kg/injection, vehicle: water): 92 % of control
T/C (dose: 200.0 mg/kg/injection, vehicle: water): 106 % of control
T/C (dose: 400.0 mg/kg/injection, vehicle: water): 86 % of control

CC(Br)C(=O)NC(Cc1ccccc1)C(=O)O (stereo not given)
T/C [1]: 104 % of control
T/C [2]: 95 % of control
T/C [3]: 102 % of control

CCOC(=O)C1=C(C#N)C2(CCC(OCc3ccccc3)CC2)C(=O)O1 (stereo not given)
T/C [1]: 105 % of control
T/C (dose: 12.5 mg/kg/injection, vehicle: suspension in saline): 105 % of control
T/C [2]: 101 % of control
T/C (dose: 25.0 mg/kg/injection, vehicle: suspension in saline): 96 % of control
T/C [3]: 94 % of control
T/C (dose: 50.0 mg/kg/injection, vehicle: suspension in saline): 107 % of control
T/C [4]: 111 % of control
T/C (dose: 100.0 mg/kg/injection, vehicle: suspension in saline): 109 % of control
T/C (dose: 200.0 mg/kg/injection, vehicle: suspension in saline): 107 % of control

CN(Cc1cnc2nc(N)nc(N)c2n1)c1c(Cl)cc(C(=O)NC(CCC(=O)O)C(=O)O)cc1Cl (stereo not given)
T/C [1]: 96 % of control
T/C [2]: 91 % of control

CC(C)CC(C(=O)O)N(C)C(=O)OC(C)(C)C (stereo not given)
T/C [5]: 101 % of control
T/C (dose: 200.0 mg/kg/injection, vehicle: Klucel (hydroxypropylcellulose) (HPC)): 90 % of control

CN(C)CCCN1c2ccccc2Sc2ccc(Cl)cc21
T/C (dose: 4.68 mg/kg/injection, vehicle: saline): 92 % of control
T/C (dose: 9.37 mg/kg/injection, vehicle: saline): 104 % of control
T/C (dose: 18.75 mg/kg/injection, vehicle: saline): 105 % of control

CC(C)(C)OC(=O)NC(CCCCNC(=O)C(F)(F)F)C(=O)O (stereo not given)
T/C [6]: 109 % of control
T/C [7]: 99 % of control
T/C [8]: 89 % of control and 99 % of control
T/C [9]: 88 % of control and 96 % of control
T/C [5]: 96 % of control

COC(COC(=O)N1CCN(C=O)CC1)C1=C(N2CC2)C(=O)C(C)=C(N2CC2)C1=O (stereo not given)
T/C (dose: 1.5 mg/kg/injection, vehicle: saline): 160 % of control and 194 % of control
T/C (dose: 3.0 mg/kg/injection, vehicle: saline): 173 % of control and 234 % of control
T/C (dose: 6.0 mg/kg/injection, vehicle: saline): 254 % of control

ClC1=C(Cl)C(Cl)=C(Cl)C1=Cc1ccccc1
T/C (dose: 3.12 mg/kg/injection, vehicle: saline with Tween-80): 112 % of control
T/C (dose: 6.25 mg/kg/injection, vehicle: saline with Tween-80): 98 % of control
T/C (dose: 12.5 mg/kg/injection, vehicle: saline with Tween-80): 106 % of control
T/C (dose: 25.0 mg/kg/injection, vehicle: saline with Tween-80): 101 % of control

CN(C(=S)S(=O)(=O)C12CC3CC(CC(C3)C1)C2)c1ccccc1
T/C (dose: 1.56 mg/kg/injection, vehicle: Klucel (hydroxypropylcellulose) (HPC)): 104 % of control
T/C [10]: 98 % of control
T/C [6]: 104 % of control
T/C [7]: 101 % of control
T/C [8]: 114 % of control
T/C [9]: 104 % of control

C=C(C)C(=O)OC1CC(C)(O)C2(O)CCC(C)(/C=C3\OC(=O)C(COC(C)=O)=C31)O2 (stereo not given)
T/C (dose: 0.62 mg/kg/injection, vehicle: distilled water + Tween-80 + alcohol): 96 % of control
T/C (dose: 1.25 mg/kg/injection, vehicle: distilled water + Tween-80 + alcohol): 105 % of control
T/C (dose: 2.5 mg/kg/injection, vehicle: distilled water + Tween-80 + alcohol): 92 % of control
T/C (dose: 5.0 mg/kg/injection, vehicle: distilled water + Tween-80 + alcohol): 89 % of control

CN1C2CCC1C(Br)C(=O)C2 (stereo not given)
T/C [2]: 105 % of control
T/C [3]: 95 % of control
T/C [4]: 93 % of control
T/C (dose: 200.0 mg/kg/injection, vehicle: saline): 93 % of control

COc1ccc(Cl)[n+]([O-])n1
T/C [10]: 93 % of control
T/C [6]: 88 % of control
T/C [7]: 94 % of control
T/C [8]: 99 % of control
T/C [9]: 93 % of control

N#Cc1ccc(NC(=O)Nc2nccs2)cc1
T/C (dose: 100.0 mg/kg/injection, vehicle: distilled water + Tween-80): 150 % of control

O=C(C#Cc1ccccc1)c1ccccc1
T/C [10]: 100 % of control and 102 % of control
T/C [6]: 92 % of control and 102 % of control
T/C [7]: 97 % of control and 101 % of control
T/C [8]: 90 % of control and 94 % of control
